Experimental data taken from publication PMC12736018, “Stereoselective Cytotoxicity of Enantiopure 3,3-Dichloro-γ-lactams: Correlating In Vitro Activity with In Vivo Tolerability” (Molecules, 2025).
Values after ≈ are worked out from the molar mass of the structure shown.

Columns and labels:
HaCaT cells = experiment: NRU cell viability assay, HaCaT; format: cell-based; conditions: Homo sapiens, 24 h
Procedure: (§1) The murine Swiss albino fibroblast (3T3), the immortal human keratinocyte (HaCaT), the squamous cell carcinoma (A431), the human epithelial carcinoma (HeLa) and the human breast adenocarcinoma (MCF-7) cell lines were sourced from Celltec UB (Barcelona, Spain). All cells were maintained and grown in DMEM medium (4.5 g/L glucose) supplemented with 10% (v/v) FBS, 2 mM L-glutamine, 100 U/mL penicillin and 100 μg/mL streptomycin at 37 °C, 5% CO2. Cells were routinely cultured in 75 cm^2 culture flasks and were trypsinized using trypsin-EDTA when the cells reached approximately 80%. Cell concentration in the resulting suspension was assessed using the trypan blue assay, which enables direct discrimination between viable (unstained) and non-viable (blue) cells.
(§2) T3 and HaCaT cells (1 × 10^5 cells/mL), along with A431, HeLa, and MCF-7 cells (5 × 10^4 cells/mL), were cultured at defined seeding densities in the 60 central wells of a 96-well plate. Cells were first incubated for 24 h under standard incubator conditions (5% CO2, 37 °C). After this period, the culture medium was removed, and the cells were incubated for an additional 24 h with their corresponding compound solutions (1 mg/mL) previously diluted in a minimum amount of DMF (dimethylformamide) and then in DMEM medium supplemented with 5% FBS (100 µL) at the required concentration range (20 to 250 µg/mL). Cell viability following exposure to the lactam derivatives was evaluated using two complementary assays: NRU and MTT.
The neutral red uptake (NRU) assay is based on the accumulation of dye in the lysosomes of viable cells. After the cells were incubated for 24 h with the corresponding systems, the medium was removed, and the solutions were incubated with the NR dye (Sigma-Aldrich, St. Louis, MO, USA) solution (50 µg/mL) dissolved in the medium, without FBS and without phenol red (Lonza, Verviers, Belgium), for 3 h. Cells were then washed with sterile PBS, followed by the addition of 100 µL of a solution containing 50% absolute ethanol and 1% acetic acid in distilled water to extract the dye. To promote the total dissolution of the dye, plates were placed in a microtiter-plate shaker for 5 min at room temperature. The absorbance of the resulting solutions was measured at 550 nm (Bio-Rad 550 microplate reader, Bio-Rad California, Hercules, CA, USA). Finally, the effect of each treatment was calculated as the percentage of dye uptake by viable cells relative to the control cells (cells without any treatment). […]

zebrafish embryos = experiment: Touch-evoked response (TER) test; format: in vivo; conditions: 72 hpf, after 2 h washout
Procedure: Adult zebrafish, both male and female, were procured from a commercial supplier (Pisciber, Barcelona, Spain) and housed in a closed flow-through system with standardized dilution water, as specified in ISO 7346-1 [16] (2 mM CaCl2·2H2O; 0.5 mM MgSO4·7H2O; 0.75 mM NaHCO3; 0.07 mM KCl). The fish were maintained at a temperature of 26 ± 1 °C on a 14 h light and 10 h dark cycle and were daily fed in the morning with Artemia salina, and with commercial flake food in the afternoon (SDS400, Special Diet Services, Dietex, France). The day before eggs were needed, males and females were placed in a breeding tank with plants at a 2:1 male-to-female ratio. The following morning, eggs were collected 30 min after the lights were turned on. […]
At 72 hpf, test solutions were replaced with 0.3× Danieau’s solution without the chemical and incubated at 27 °C ± 1 °C for 2 h. […] In brief, videos were recorded using a Casio Exilim EX-ZR200 video camera (Tokyo, Japan) and the distance swam by zebrafish embryos was measured after three mechanical stimuli, applied to the tail with a forceps tip (Fine Science Tools, Dumont #5, Foster City, CA, USA) at 10 s intervals. […] Six larvae per concentration group were evaluated in at least three independent experiments.
Statistical analysis was performed using GraphPad Prism v.10.0.2. TER test was analyzed using one-way ANOVA and the post-hoc multiple-comparison Dunnett test. […]

HeLa cells = experiment: MTT cell viability assay, HeLa; format: cell-based; conditions: Homo sapiens, 24 h
Procedure: as §1, §2
Only living cells can reduce the yellow tetrazolium salt 3-(4,5-dimethyl-2-thiazolyl)-2,5-diphenyltetrazolium bromide (MTT) to insoluble purple formazan crystals. After a 24 h incubation of the cells with their corresponding NPs, the medium was removed and 100 µL of MTT (Sigma-Aldrich, St. Louis, MO, USA) in PBS (5 mg/mL) diluted 1:10 in culture medium without phenol red and without FBS (Lonza, Verviers, Belgium) was added to the cells. After 3 h of incubation, the medium was removed. Thereafter, 100 µL of DMSO (Sigma-Aldrich, St. Louis, MO, USA) was added to each well to dissolve the purple formazan crystals. Agitation and absorbance measurements of the extracted solution were carried out under the same conditions described for the NRU assay. The effect of each treatment was then expressed as the percentage of tetrazolium salt reduction by viable cells relative to untreated controls.
The half-maximal inhibitory concentration (IC50) values for the different formulations, across cell lines and experimental endpoints, were obtained by fitting the concentration-dependent viability curves. […] These findings reflect the very low cytotoxicity of the compounds toward these cell lines.

| SMILES | IC50 (HaCaT cells) | concentration from which a statistically significant adverse effect was observed in the TER (zebrafish embryos) | IC50 (HeLa cells) |
| --- | --- | --- | --- |
| C[C@H](c1ccccc1)N1C[C@H](C)C(Cl)(Cl)C1=O [Compound 4] | > 250 µg/mL | ≥ 7800 ng/mL | 94.3 µg/mL (≈ 346 µM) |
| C[C@@H]1CN([C@@H](C)c2ccccc2)C(=O)C1(Cl)Cl [Compound 3, (R)-3,3-dichloro-4-methyl-1-((S)-1-phenylethyl)pyrrolidin-2-one] | > 250 µg/mL | ≥ 7800 ng/mL | 184 µg/mL (≈ 675 µM) |
